For data set [1], the system named is herpes simplex type 1 virus (HFEM strain). In words: Plaque reduction test in Vero cells infected with herpes simplex type 1 virus. It is filed as cell-based. The protocol: (§1) Vero (African Green Monkey Kidney) cells were grown to confluence in 6 well multidishes, each well being 3.5 cm in diameter. The cells were incubated with herpes simplex type 1 virus (HFEM strain) and overlaid with 0.5 mL of 0.9% agarose (w/v) in maintenance medium containing the test compound at a range of concentrations from 100 pg/mL in half-log dilution steps. The virus infected cultures were then incubated at 37°C for 6 days before fixing in 4% formaldehyde solution and staining with carbolfuchsin. The dishes were then examined to find the concentration of test compound causing a 50% reduction in the number of virus plaques formed (PDD50 value) and the minimum concentration of test compound which killed the cell monolayer, leaving a clear zone devoid of cells and virus plaques (MTD).
(In general: In a plaque reduction assay, fewer plaques than in the control indicate reduced infectivity or spread.)

Data set [2] can be described thus: Minimum concentration killing the cell monolayer (MTD), read in the plaque reduction test. Particulars: monkey, vero cells; minimum concentration which killed the cell monolayer; virus infected Vero cultures, 6 days at 37°C. It is filed as cell-based, African Green Monkey. The protocol: as §1
Setting [3] is: Human alphaherpesvirus 1, 144 h, concentration causing a 50% reduction in the number of virus plaques, Vero cells, HFEM strain, 6 days at 37°C, molar, read-out: PDD50 (the source's name).
Setting [4] is: Human alphaherpesvirus 1, 144 h, concentration causing a 50% reduction in the number of virus plaques, Vero cells, HFEM strain, 6 days at 37°C, read-out: PDD50 (the source's name).
Where [5] appears, read: Human alphaherpesvirus 1, Vero, 144 h, read-out: PDD50.

Several values for one entry are separate records, joined by “and”; a condition that tells them apart may be missing. Identical values can stand only once. Like-named read-outs stand apart in the source and are kept apart here.

For `O=C(OC[C@H]1O[C@@H](n2cc(/C=C/Br)c(=O)[nH]c2=O)C[C@@H]1OC(=O)c1ccccc1)c1ccccc1` [Example 2, E-5-(2-bromovinyl)-3',5'-di-O-benzoyl-2'-deoxyuridine], the IC50 in data set [1] (setting [3]) turned out to be 100 µM; in data set [1] (setting [4]), 54 µg/mL. Besides, the MCC at 144 h in data set [2] is > 100 µg/mL.

For `O=C(OC[C@H]1O[C@@H](n2cc(/C=C/Br)c(=O)[nH]c2=O)C[C@@H]1O)c1ccccc1` [Example 3, 5'-O-benzoyl-E-5-(2-bromovinyl)-2'-deoxyuridine], the figures for the IC50 in data set [1] (setting [3]) and in data set [1] (setting [4]) were 3.7 µM and 1.7 µg/mL, respectively. In addition, the MCC at 144 h in data set [2] was > 100 µg/mL.

Turning to `O=C(O[C@H]1C[C@H](n2cc(/C=C/Br)c(=O)n(C(=O)c3ccccc3)c2=O)O[C@@H]1CO)c1ccccc1` [Example 10, 3-N-Benzoyl-3'-O-benzoyl-E-5-(2-bromovinyl)-2'-deoxyuridine], the results for the IC50 in data set [1] (setting [3]) and in data set [1] (setting [4]) were 3.8 µM and 2.1 µg/mL, respectively. In data set [2], this compound registered an MCC at 144 h of 100 µg/mL.

Consider `O=C(O[C@H]1C[C@H](n2cc(/C=C/Br)c(=O)[nH]c2=O)O[C@@H]1CO)c1ccccc1` [Example 11, 3'-O-Benzoyl-E-5-(2-bromovinyl)-2'-deoxyuridine], for which the figures for the IC50 in data set [1] (setting [3]) and in data set [1] (setting [4]) were 3.7 µM and 1.6 µg/mL, respectively. The MCC at 144 h in data set [2] was > 100 µg/mL.

On to `O=C(c1ccccc1)n1c(=O)c(/C=C/Br)cn([C@H]2C[C@H](O)[C@@H](CO)O2)c1=O` [Example 12, 3-N-Benzoyl-E-5-(2-bromovinyl)-2'-deoxyuridine], for which the IC50 amounted to 0.53 µM in data set [1] (setting [3]) and 0.23 µg/mL in data set [1] (setting [4]). The MCC at 144 h in data set [2] came to 100 µg/mL.

Regarding `O=C(OC[C@H]1O[C@@H](n2cc(/C=C/Br)c(=O)[nH]c2=O)C[C@@H]1OC(=O)c1ccc(Cl)cc1)c1ccc(Cl)cc1` [Example 15, E-5-(2-Bromovinyl)-3',5'-di-O-p-chlorobenzoyl-2'-deoxyuridine], the IC50 came out at 121 µM in data set [1] (setting [3]) and 74 µg/mL in data set [1] (setting [4]). Besides, the MCC at 144 h in data set [2] is > 100 µg/mL.

Consider `O=C(Cc1ccccc1)OC[C@H]1O[C@@H](n2cc(/C=C/Br)c(=O)[nH]c2=O)C[C@@H]1OC(=O)Cc1ccccc1` [Example 17, E-5-(2-Bromovinyl)-3',5'-di-0-phenylacetyl-2'-deoxyuridine], for which the IC50 in data set [1] (setting [5]) was 3.9 µg/mL and 6.9 µM. For the same compound, the MCC at 144 h in data set [2] is > 100 µg/mL.

As to `O=C(OC[C@H]1O[C@@H](n2cc(/C=C/Br)c(=O)[nH]c2=O)C[C@@H]1O)c1ccc(Cl)cc1` [Example 18, E-5-(2-Bromovinyl)-5'-0-p-chlorobenzoyl-2'-deoxyuridine], the IC50 stood at 1.78 µM in data set [1] (setting [3]) and 0.84 µg/mL in data set [1] (setting [4]). Further, in data set [2], the MCC at 144 h is > 100 µg/mL.

Take `COc1ccc(C(=O)OC[C@H]2O[C@@H](n3cc(/C=C/Br)c(=O)[nH]c3=O)C[C@@H]2O)cc1` [Example 19, E-5-(2-Bromovinyl)-5'-p-methoxybenzoyl-2'-deoxyuridine]: the IC50 in data set [1] (setting [3]) is 13.5 µM; in data set [1] (setting [4]) it was 6.3 µg/mL. The MCC at 144 h in data set [2] is 100 µg/mL.

Regarding `O=C(c1ccc(Cl)cc1)n1c(=O)c(/C=C/Br)cn([C@H]2C[C@H](O)[C@@H](CO)O2)c1=O` [Example 20, E-5-(2-Bromovinyl)-3-N-p-chlorobenzoyl-2'-deoxyuridine], the values for the IC50 in data set [1] (setting [3]) and in data set [1] (setting [4]) were 0.25 µM and 0.12 µg/mL, respectively. In addition, the MCC at 144 h in data set [2] was > 100 µg/mL.

In the case of `COc1ccc(C(=O)n2c(=O)c(/C=C/Br)cn([C@H]3C[C@H](O)[C@@H](CO)O3)c2=O)cc1` [Example 21, E-5-(2-Bromovinyl)-3-N-p-methoxybenzoyl-2'-deoxyuridine], the IC50 in data set [1] (setting [3]) came to 0.54 µM; in data set [1] (setting [4]), 0.25 µg/mL. In data set [2], the MCC at 144 h was > 100 µg/mL.

On to `C[Si](C)(C)OC[C@H]1O[C@@H](n2cc(/C=C/Br)c(=O)[nH]c2=O)C[C@@H]1O[Si](C)(C)C` [Example 22, E-5-(2-Bromovinyl)-3',5'-bis-O-trimethylsilyl-2'-deoxyuridine], for which the IC50 in data set [1] (setting [5]) was 0.24 µg/mL and 500 nM. The MCC at 144 h in data set [2] is > 100 µg/mL.

On to `CCCCC(=O)n1c(=O)c(/C=C/Br)cn([C@H]2C[C@H](O)[C@@H](CO)O2)c1=O` [Example 23, E-5-(2-Bromovinyl)-3-N-valeryl-2'-deoxyuridine], for which the IC50 is 0.62 µM in data set [1] (setting [3]) and 0.26 µg/mL in data set [1] (setting [4]). The MCC at 144 h in data set [2] was > 100 µg/mL.

For the compound `CC(C)(C)C(=O)n1c(=O)c(/C=C/Br)cn([C@H]2C[C@H](O)[C@@H](CO)O2)c1=O` [Example 24, E-5-(2-Bromovinyl)-3-N-pivaloyl-2'-deoxyuridine], the IC50 in data set [1] (setting [3]) turned out to be 1.1 µM; in data set [1] (setting [4]) it was 0.46 µg/mL. The MCC at 144 h in data set [2] is > 100 µg/mL.

`O=C(C1CCCCC1)n1c(=O)c(/C=C/Br)cn([C@H]2C[C@H](O)[C@@H](CO)O2)c1=O` [Example 25, E-5-(2-Bromovinyl)-3-N-cyclohexanecarbonyl-2^1-deoxyuridine]: the IC50 in data set [1] (setting [3]) amounted to 0.72 µM; in data set [1] (setting [4]) it was 0.32 µg/mL. Besides, in data set [2], the MCC at 144 h was > 100 µg/mL.

Regarding `O=C(c1cccc(Cl)c1)n1c(=O)c(/C=C/Br)cn([C@H]2C[C@H](O)[C@@H](CO)O2)c1=O` [Example 26, E-5-(2-Bromovinyl)-3-N-(3-chlorobenzoyl)-2^1-deoxyuridine], the IC50 was determined as 0.53 µM in data set [1] (setting [3]) and 0.25 µg/mL in data set [1] (setting [4]). Further, the MCC at 144 h in data set [2] was > 100 µg/mL.

Consider `CCCN(CCC)S(=O)(=O)c1ccc(C(=O)OC[C@H]2O[C@@H](n3cc(/C=C/Br)c(=O)[nH]c3=O)C[C@@H]2O)cc1` [Example 29, E-5-(2-Bromovinyl)-5'-p-(dipropylsulphamoyl)benzoyl-2'-deoxyuridine], for which the IC50 was 1.87 µM in data set [1] (setting [3]) and 1.12 µg/mL in data set [1] (setting [4]). Besides, in data set [2], the MCC at 144 h was > 100 µg/mL.

As to `CCCN(CCC)S(=O)(=O)c1ccc(C(=O)n2c(=O)c(/C=C/Br)cn([C@H]3C[C@H](O)[C@@H](CO)O3)c2=O)cc1` [Example 30, E-5-(2-Bromovinyl)-3-[4-(N,N-di-n-propylsulphamoyl)benzoyl]-2'-deoxyuridine], the IC50 in data set [1] (setting [3]) amounted to 0.18 µM; in data set [1] (setting [4]), 0.11 µg/mL. In addition, in data set [2], the MCC at 144 h was > 100 µg/mL.

Take `O=C(OC[C@H]1O[C@@H](n2cc(/C=C/Br)c(=O)[nH]c2=O)C[C@@H]1OC(=O)c1ccc([N+](=O)[O-])cc1)c1ccc([N+](=O)[O-])cc1` [Example 31, E-5-(2-bromovinyl)-3',5'-di-O(4-nitrobenzoyl)-2-deoxy-uridine]: the IC50 in data set [1] (setting [5]) was 20 µg/mL and 32 µM. Further, the MCC at 144 h in data set [2] is > 100 µg/mL.

As to `O=C(OC[C@H]1O[C@@H](n2cc(/C=C/Br)c(=O)[nH]c2=O)C[C@@H]1O)c1ccc([N+](=O)[O-])cc1` [Example 32, E-5-(2-Bromovinyl)-5' -O-(4-nitrobenzoyl)-2'-deoxyuridine], the IC50 in data set [1] (setting [3]) was 2 µM; in data set [1] (setting [4]) it was 0.95 µg/mL. Also, the MCC at 144 h in data set [2] was > 100 µg/mL.

As for `O=C(OC[C@H]1O[C@@H](n2cc(/C=C/Br)c(=O)[nH]c2=O)C[C@@H]1OC(=O)c1ccc(Cl)c(Cl)c1)c1ccc(Cl)c(Cl)c1` [Example 33, E-5-(2-bromovinyl)-3',5'-di-O-(3,4-dichlorobenzoyl)-2'-deoxyuridine], the IC50 in data set [1] (setting [3]) worked out at 147 µM; in data set [1] (setting [4]), 100 µg/mL. Also, the MCC at 144 h in data set [2] was > 100 µg/mL.

Turning to `O=C(O[C@H]1C[C@H](n2cc(/C=C/Br)c(=O)[nH]c2=O)O[C@@H]1CO)c1ccc(Cl)c(Cl)c1` [Example 34, E-5-(2-bromovinyl)-3'-O-(3,4-dichlorobenzoyl)-2'-deoxyuridine], the IC50 in data set [1] (setting [3]) came to 2.3 µM; in data set [1] (setting [4]), 1.2 µg/mL. Further, the MCC at 144 h in data set [2] is > 100 µg/mL.

With `O=C(OC[C@H]1O[C@@H](n2cc(/C=C/Br)c(=O)[nH]c2=O)C[C@@H]1O)c1ccc(Cl)c(Cl)c1` [Example 35, E-5-(2-Bromovinyl)-5' -O-(3 ,4-dichlorobenzoyl)-2'-deoxyuridine], the results for the IC50 in data set [1] (setting [3]) and in data set [1] (setting [4]) were 2.8 µM and 1.4 µg/mL, respectively. Also, in data set [2], the MCC at 144 h is > 100 µg/mL.

For `Cc1ccc(C(=O)O[C@H]2C[C@H](n3cc(/C=C/Br)c(=O)[nH]c3=O)O[C@@H]2CO)cc1` [Example 37, E-5-(2-bromovinyl)-3'-O-(4-methylbenzoyl)-2'-deoxyuridine], the results for the IC50 in data set [1] (setting [3]) and in data set [1] (setting [4]) were 1.4 µM and 0.63 µg/mL, respectively. Further, the MCC at 144 h in data set [2] was > 100 µg/mL.

`Cc1ccc(C(=O)OC[C@H]2O[C@@H](n3cc(/C=C/Br)c(=O)[nH]c3=O)C[C@@H]2O)cc1` [Example 38, E-5-(2-Bromovinyl)-5'-O-(4-methylbenzoyl)-2' -deoxyuridine]: the IC50 in data set [1] (setting [3]) stood at 1.7 µM; in data set [1] (setting [4]), 0.78 µg/mL. Also, the MCC at 144 h in data set [2] was > 100 µg/mL.

In the case of `CCCCc1ccc(C(=O)OC[C@H]2O[C@@H](n3cc(/C=C/Br)c(=O)[nH]c3=O)C[C@@H]2O)cc1` [Example 40, E-5-(2-bromovinyl)-5'-0-(4-n-butylbenzoyl)-2'-deoxyuridine], the IC50 in data set [1] (setting [3]) was determined as 12 µM; in data set [1] (setting [4]), 6.1 µg/mL. The MCC at 144 h in data set [2] was > 100 µg/mL.

Take `CN(C)c1ccc(C(=O)O[C@H]2C[C@H](n3cc(/C=C/Br)c(=O)[nH]c3=O)O[C@@H]2CO)cc1` [Example 42, E-5-{2-bromovinyl)-3'-O-(4-N,N-dimethylaminobenzoyl)-2'-deoxyuridine]: the IC50 in data set [1] (setting [3]) was 1.4 µM; in data set [1] (setting [4]) it was 0.63 µg/mL. Moreover, the MCC at 144 h in data set [2] was > 100 µg/mL.

Source of the values: EP0082668A1, “5-(2-Halogenovinyl)-2'-deoxyuridine derivatives, processes for their preparation, pharmaceutical compositions containing them and their use in treating viral infections” (BEECHAM GROUP PLC, priority 1981, dated 1983).
